Here are results for two molecules from patent publication US9920033B2, “Crystalline form of a substituted quinoline compound and pharmaceutical compositions thereof” (Sunshine Lake Pharma Co., Ltd., priority 2015, dated 2018).

Like-named read-outs stand apart in the source and are kept apart here.

Data set [1] can be described thus: Pharmacokinetics test in beagle dogs. The format is in vivo. Particulars: for AUC(0-inf) / Cmax / Tmax / half-life / AUC(0-t): dog, plasma, po, capsule by gavage; for AUC(0-t): read-out: AUC0-24 h. As to the method:
The pharmacokinetic properties of amorphous Compound (I) or the crystalline form A of Compound (I) disclosed herein are assessed in beagle dogs. The LC/MS/MS system used in the analysis consists of an Agilent 1200 Series vacuum degasser, binary pump, well-plate autosampler, thermostatted column compartment, the Agilent G6430 Triple Quadrupole Mass Spectrometer with an electrosprayionization (ESI) source. Quantitative analysis was carried out using MRM mode. The parameters for MRM transitions are in the Table A.
An Agilent XDB-C18, 2.1×30 mm, 3.5 μM column was used for the analysis. 5 μL of the samples were injected. Analysis condition: The mobile phase was 0.1% formic acid in water (A) and 0.1% formic acid in methanol (B). The flow rate was 0.4 mL/min. And the gradient of Mobile phase was in the Table B.
Alternatively, an Agilent 6330 series LC/MS/MS spectrometer equipped with G1312A binary pumps, a G1367A autosampler and a G1314C UV detector were used in the analysis. An ESI source was used on the LC/MS/MS spectrometer. The analysis was done in positive ion mode as appropriate and the MRM transition for each analyte was optimized using standard solution. A Capcell MP-C18 100×4.6 mm I.D., […] column (Phenomenex, Torrance, Calif., USA) was used during the analysis. The mobile phase was 5 mM ammonia acetate, 0.1% MeOH in water (A): 5 mM ammonia acetate, 0.1% MeOH in acetonitrile (B) (70/30, v/v). The flow rate was 0.6 mL/min. Column was maintained at ambient temperature. 20 μL of the samples were injected.
[…] The blood samples (0.3 mL) were drawn at 0.25, 0.5, 1.0, 2.0, 3.0, 4.0, 6.0, 8.0, 12 and 24 hour time points or 0.083, 0.25, 0.5, 1.0, 2.0, 4.0, 6.0, 8.0 and 24 hour time points and centrifuged at 3,000 or 4000 rpm for 2 to 10 min. The plasma solutions were collected, and analyzed by LC/MS/MS as described above. The pharmacokinetic parameters were calculated according to non-compartment model using WinNonlin procedure.

A short description of the next data set: Hygroscopicity test. The format is physicochemical. Particulars: p-toluenesulfonate; for Hygroscopicity (conclusion in words): from Table 6; for Hygroscopic capacity: 25±1° C. How it is done:
A glass weighing bottle equipped with a stopper was tarred and the weight was recorded as m1. Compound (I) in crystalline form A or amorphous form (about 1.0 g) was placed in the tared weighing bottle and capped with the stopper. The total weight was then recorded as m2. […] The weighing bottle capped with its stopper was weighed on day 5 and day 10 and the weight was recorded as m3.

Data set [2] is described as follows: Stability test (impurity contents by HPLC). Particulars: for The impurity contents: HPLC; for Increase of the impurity contents: illuminating the samples for 10 days. In kind it is physicochemical. As to the method:
A sample of crystalline form A of compound (I) (100˜200 mg) was placed on a watching glass in the form of a thin layer (thickness ≤5 mm). The samples were exposed to the following conditions: high temperature (60±2° C.) for 10 days; high humidity (25±2° C., 90%±5% relative humidity) for 10 days; illumination condition (visible light 4500 lx±500 lx with ultraviolet light not lower than 0.7 W·h/m^2, 25±2° C., 60%±5% relative humidity) for 10 days; and room temperature (30±2° C., 65%±5% relative humidity) for 10 days, respectively. The impurity contents in the samples were determined at different time points (0, 5 and 10 days) by high performance liquid chromatography (HPLC), and the absorption peaks were normalized relative to the highest peak (corresponds to compound I) which is set to 100%.

Setting [3] is: dose 9.7 mg/kg, grain size D90 32 μm.
Where [4] appears, read: high humidity (25±2° C., 90%±5% relative humidity), 0 day, p-toluenesulfonate.
The mark [5] stands for this setting: high humidity (25±2° C., 90%±5% relative humidity), 5 days, p-toluenesulfonate.
Where [6] appears, read: high humidity (25±2° C., 90%±5% relative humidity), 10 days, p-toluenesulfonate.
[7] abbreviates: high temperature (60±2° C.), 0 day, p-toluenesulfonate.
The mark [8] stands for this setting: high temperature (60±2° C.), 5 days, p-toluenesulfonate.
Setting [9] is: high temperature (60±2° C.), 10 days, p-toluenesulfonate.
[10] abbreviates: illuminating condition (visible light 4500 lx±500 lx with UV, 25±2° C., 60%±5% RH), 0 day, p-toluenesulfonate.
Where [11] appears, read: illuminating condition (visible light 4500 lx±500 lx with UV, 25±2° C., 60%±5% RH), 5 days, p-toluenesulfonate.
Where [12] appears, read: illuminating condition (visible light 4500 lx±500 lx with UV, 25±2° C., 60%±5% RH), 10 days, p-toluenesulfonate.
The mark [13] stands for this setting: room temperature (30±2° C., 65%±5% relative humidity), 0 day, p-toluenesulfonate.
The mark [14] stands for this setting: dose 10 mg/kg, grain size D90 22 μm.

The term AUC(0-inf) denotes the area under the concentration-time curve extrapolated to infinity. The term Cmax denotes the highest concentration seen after dosing. As a reminder, the Tmax is the time from dosing to the highest level. One may read the half-life as the time in which the quantity being followed falls by half. Higher therefore signals slow decline. As to `Cc1c(C(=O)Nc2ccc(Oc3ccnc4cc(OCC(C)(C)O)ccc34)c(F)c2)c(=O)n(-c2ccccc2)n1C.Cc1ccc(S(=O)(=O)O)cc1` [Amorphous, N-(3-fluoro-4-((7-(2-hydroxy-2-methylpropoxy)quinolin-4-yl)oxy)phenyl)-1,5-dimethyl-3-oxo-2-phenyl-2,3-dihydro-1H-pyrazole-4-carboxamide p-toluenesulfonate], the AUC(0-inf) in data set [1] (setting [3]) was 55300 ng·h/mL. This molecule also showed a Cmax in data set [1] (setting [3]) of 2640 ng/mL. For the same molecule, the Tmax in data set [1] (setting [3]) was 3.33 h. The half-life in data set [1] (setting [3]) was 15 h. For the same molecule, the AUC(0-t) in data set [1] (setting [3]) was 37300 ng·h/mL. In the data set “Hygroscopicity test” (listed as amorphous Compound (I)), the “Hygroscopicity (conclusion in words)” value is recorded as “hygroscopic”. The Hygroscopic capacity in “Hygroscopicity test” (standing time 5 d) amounted to 7.74%; in “Hygroscopicity test” (standing time 10 d) it was 8.48%. Besides, the The impurity contents in data set [2] (setting [4]) is listed as 0.14%; in data set [2] (setting [5]), 0.11%; in data set [2] (setting [6]) it was 0.07%; in data set [2] (setting [7]), 0.14%; in data set [2] (setting [8]) it was 0.13%; in data set [2] (setting [9]), 0.10%. In addition, the The impurity contents in data set [2] (setting [10]) was found to be 0.14%; in data set [2] (setting [11]), 0.36%; in data set [2] (setting [12]), 0.56%; in data set [2] (setting [13]), 0.14%; in data set [2] (room temperature (30±2° C., 65%±5% relative humidity), 5 days) it was 0.07%; in data set [2] (room temperature (30±2° C., 65%±5% relative humidity), 10 days) it was 0.07%. Also, the “Increase of the impurity contents” value in data set [2] (listed as amorphous Compound (I), p-toluenesulfonate) was determined as 0.42%.
`Cc1c(C(=O)Nc2ccc(Oc3ccnc4cc(OCC(C)(C)O)ccc34)c(F)c2)c(=O)n(-c2ccccc2)n1C.Cc1ccc(S(=O)(=O)O)cc1` [Form A, N-(3-fluoro-4-((7-(2-hydroxy-2-methylpropoxy)quinolin-4-yl)oxy)phenyl)-1,5-dimethyl-3-oxo-2-phenyl-2,3-dihydro-1H-pyrazole-4-carboxamide p-toluenesulfonate]: in data set [1] (Cmax, AUC0-24h and AUC0-∞ compared with amorphous Compound (I)), the “Exposure and bioavailability in vivo (conclusion in words)” value was “good exposure and bioavailability”. Moreover, the AUC(0-inf) in data set [1] (setting [14]) was found to be 180000 ng·h/mL. In data set [1] (setting [14]), this molecule gave a Cmax of 6190 ng/mL. Besides, in data set [1] (setting [14]), the Tmax was determined as 4 h. Further, in data set [1] (setting [14]), the half-life was 25 h. Moreover, the AUC(0-t) in data set [1] (setting [14]) is 131000 ng·h/mL. Moreover, in “Hygroscopicity test” (listed as crystalline form A of compound (I)), the “Hygroscopicity (conclusion in words)” value is “not hygroscopic”. For the same molecule, the Hygroscopic capacity in the data set “Hygroscopicity test” (standing time 5 d) was 0.03%; in the data set “Hygroscopicity test” (standing time 10 d) it was 0.12%. The The impurity contents in data set [2] (setting [4]) is on record as 0.35%; in data set [2] (setting [5]) it was 0.37%; in data set [2] (setting [6]), 0.39%; in data set [2] (setting [7]), 0.35%; in data set [2] (setting [8]), 0.37%; in data set [2] (setting [9]), 0.37%. Also, the The impurity contents in data set [2] (setting [10]) was found to be 0.35%; in data set [2] (setting [11]), 0.38%; in data set [2] (setting [12]), 0.48%; in data set [2] (setting [13]), 0.35%. The “Increase of the impurity contents” value in data set [2] (listed as crystalline form A of Compound (I), p-toluenesulfonate) is given as 0.13%.
